Test results taken from publication PMC7840129, “Structural basis for heme-dependent NCoR binding to the transcriptional repressor REV-ERBβ” (Science Advances, 2021).

How the values were obtained:
heme-bound REV-ERBβ LBD = molecular target: T1, heme-bound REV-ERBβ LBD (Homo sapiens, UniProt Q14995); experiment: ITC, NCoR ID peptides with heme-bound REV-ERBβ LBD; format: binding; conditions: for TΔS: pH 7.4, T constant at 25°C; for thermodynamic profile of peptide binding (in words), + heme: heme-bound LBD; for effect of heme on LBD affinity for peptide (in words): heme-bound vs apo LBD
T1 construct: The human REV-ERBβ LBD (residues 381 to 579) was previously cloned; 6xHis with 3C protease cleavage site (N, cleaved yes); made in house; host or cells: E. coli BL21(DE3)
T1 sequence (Q14995 381-579): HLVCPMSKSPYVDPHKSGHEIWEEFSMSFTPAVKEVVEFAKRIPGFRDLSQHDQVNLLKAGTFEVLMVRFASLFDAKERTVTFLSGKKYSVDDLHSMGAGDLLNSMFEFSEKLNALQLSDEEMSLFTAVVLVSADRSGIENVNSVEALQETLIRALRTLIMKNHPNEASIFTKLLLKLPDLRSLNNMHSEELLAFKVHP
Experimental: NCoR RID mutants were generated by site-directed mutagenesis: The ID1 CoRNR box motif was mutated from [sequence] to [sequence] (ΔID1 and ΔID1ΔID2), and the ID2 CoRNR box motif was mutated from LEDIIRKAL to TEDTTRKAL (ΔID2 and ΔID1ΔID2), as these mutations were previously reported to disrupt CoRNR box binding ([10], [30]). Heme (Sigma-Aldrich, no. 51280) was prepared either as a 1 mM stock in dimethyl sulfoxide (DMSO) stored at 4°C or 50 mM stock in 0.2 M NaOH (solutions prepared in 0.2 M NaOH were always made fresh immediately before the experiment), where indicated. […] Human embryonic kidney (HEK) 293T cells (American Type Culture Collection, no. CRL-11268) were cultured in Dulbecco’s modified eagle medium (DMEM) supplemented with 10% fetal bovine serum, 2 mM L-glutamine, and 1% penicillin-streptomycin at 37°C and 5% CO2 under standard culture conditions. The pcDNA3.1^+ expression vector containing full-length human REV-ERBβ ([31]) and the pGL3-Bmal1-luciferase construct containing the Bmal1 promoter (−816 to +99 of the mouse Bmal1 promoter region) were used in HEK293T cell transfections. Site-directed mutagenesis was performed to mutate the proximal RORE (pRORE mutant), distal RORE (dRORE mutant), or both (p/dRORE mutant) in the pGL3-Bmal1-luciferase construct based on a previous study ([6]) where the ROREs were mutated to disrupt REV-ERBα activity.
Expression was performed using auto-induction media: Cells were grown at 37°C for 5 hours, 30°C for 1 hour, and 18°C for 16 hours before harvesting by centrifugation. Pellets were resuspended in potassium phosphate lysis buffer [40 mM potassium phosphate (pH 7.4), 500 mM KCl, 15 mM imidazole, and 1 mM dithiothreitol (DTT)] supplemented with leupeptin, pepstatin A, lysozyme, and deoxyribonuclease (DNase) I and sonicated on ice. […] A 5-ml aliquot of 6xHis-tagged protein was purified by size exclusion chromatography using a Superdex 75 column equilibrated in time-resolved fluorescence energy transfer (TR-FRET) assay buffer [20 mM potassium phosphate (pH 7.4), 50 mM KCl, and 0.5 mM EDTA]; purified aliquots were stored at −80°C for TR-FRET assays. To cleave the 6xHis tag from the remaining protein, it was incubated overnight with 3C protease (generated in-house) via dialysis; then, protein was reloaded onto the HisTrap columns, and the flow-through was collected. Last, aggregates were removed by size exclusion chromatography using a Superdex 75 column and Hepes gel filtration buffer [20 mM Hepes (pH 7.4), 50 mM KCl, and 0.5 mM EDTA]. Greater than 95% purity was confirmed by SDS-PAGE. Protein was aliquoted and stored at −80°C.
ITC experiments were performed using a MicroCal iTC200. All experiments were solvent-matched and contained 0.1% DMSO (peptide vehicle) and 0.2% 0.2 M solution of NaOH (heme vehicle) final concentrations.
LBD in the syringe was titrated into ID peptide in the sample cell at 25°C with a 60-s delay between injections (2-μl intervals) with a mixing speed of 1200 rpm for a total of 20 injections (or 2 molar equivalents of LBD), unless otherwise noted below.

[1] = system: apo 15N-labeled REV-ERBβ LBD; experiment: NMR structural footprinting, 2D [1H,15N]-TROSY-HSQC titration, apo LBD; format: binding, human; conditions: apo LBD (200 μM), 298 K, 20 mM Hepes pH 7.4, 50 mM NaCl, 0.5 mM EDTA
Excerpt: To support our ITC results, we performed solution NMR structural footprinting by titrating NCoR ID1 or ID2 peptide into ^15N-labeled REV-ERBβ LBD. For this analysis, we used backbone NMR chemical shift assignments that we previously reported for apo LBD ([18]) and collected three-dimensional (3D) NMR data to obtain backbone NMR chemical shift assignments for heme-bound LBD (fig. S4). […] To qualitatively assess the strength of each interaction, we analyzed the exchange regime of NMR chemical shift changes on the NMR time scale. […]
(§1) To generate heme-bound protein, 1.25 molar equivalents of heme prepared in 0.2 M NaOH as a 50 mM stock were added to ^15N-labeled REV-ERBβ LBD (200 μM) or ^2H-,^15N-,^13C-labeled REV-ERBβ LBD (1 mM) in Hepes buffer [20 mM Hepes (pH 7.4), 50 mM NaCl, and 0.5 mM EDTA]. NMR data were collected at 298 K on a Bruker 700-MHz NMR system equipped with a QCI CryoProbe, processed using NMRFx ([40]), and analyzed using NMRViewJ ([41]). […] 2D [^1H,^15N]-TROSY-HSQC data were collected for heme-bound ^15N-labeled REV-ERBβ LBD at 298 K with addition of NCoR ID1 or ID2 peptides prepared as 50 mM stock in DMSO and analyzed in NMRViewJ. […]

[2] = system: heme-bound 15N-labeled REV-ERBβ LBD; experiment: NMR structural footprinting, 2D [1H,15N]-TROSY-HSQC titration, heme-bound LBD; format: binding, human; conditions: 298 K; for NMR exchange regime on peptide titration: heme-bound LBD (200 μM, 1.25 equivalents heme), 20 mM Hepes pH 7.4, 50 mM NaCl, 0.5 mM EDTA; for NMR CSP and line broadening, binding surface: heme-bound LBD, 2× ID1 or ID2 peptide
Excerpt: To support our ITC results, we performed solution NMR structural footprinting by titrating NCoR ID1 or ID2 peptide into ^15N-labeled REV-ERBβ LBD. For this analysis, we used backbone NMR chemical shift assignments that we previously reported for apo LBD ([18]) and collected three-dimensional (3D) NMR data to obtain backbone NMR chemical shift assignments for heme-bound LBD (fig. S4). […] To qualitatively assess the strength of each interaction, we analyzed the exchange regime of NMR chemical shift changes on the NMR time scale.
Next, we used differential NMR analysis to structurally map the ID1 and ID2 peptide binding surfaces in the heme-bound LBD. In other NRs, the AF-2 coregulator interaction surface is formed by the physical interaction of helix 12 with a surface formed by helices 3 to 5 within the LBD. REV-ERBβ lacks helix 12 but contains the surface formed by helices 3 to 5 including a conserved lysine residue (K421) on helix 3 important for corepressor interaction ([19]). We quantitatively analyzed chemical shift perturbations (CSPs) and line broadening caused by peptide binding in 2D [^1H,^15N]-TROSY-HSQC NMR spectra (Fig. 1D and fig. S6). […] We also observed binding effects on helix 7, which may be attributed to a peptide-induced allosteric conformational change due to interactions between the heme propionate group and G480 on helix 7 (fig. S7).
For generation of ^15N-labeled REV-ERBβ LBD, protein was expressed in BL21(DE3) E. coli cells using M9 minimal media supplemented with ^15NH4Cl (Cambridge Isotope Laboratories) induced at an optical density at 600 nm (OD600) of 0.6 with 0.5 mM isopropyl-β-D-thiogalactopyranoside (IPTG) for 16 hours at 18°C. For generation of ^2H-,^15N-,^13C-labeled REV-ERBβ LBD (~70% deuteration) for peak assignment experiments, cultures were first grown at 37°C in 1 liter of LB media until an OD600 of 0.6 before the cells were pelleted and resuspended in 0.5 liters of M9 minimal media prepared in D2O supplemented with ^13C-D-glucose and ^15NH4Cl (Cambridge Isotope Laboratories). After 1-hour recovery at 37°C, expression was induced with 0.5 mM IPTG for 16 hour at 37°C before harvesting by centrifugation. […]
as §1

[3] = +Heme LBD, pH 7.4, 25°C, 95% CI

Compound | ΔH, enthalpy of binding (heme-bound REV-ERBβ LBD; [3]) [kcal/mol] | TΔS (heme-bound REV-ERBβ LBD; +Heme LBD, 95% CI) [kcal/mol] | thermodynamic profile of peptide binding (in words), + heme (heme-bound REV-ERBβ LBD) | effect of heme on LBD affinity for peptide (in words) (heme-bound REV-ERBβ LBD) | NMR exchange regime on peptide titration [1] | NMR exchange regime on peptide titration [2] | NMR CSP and line broadening, binding surface [2] | ΔG, free energy of binding (heme-bound REV-ERBβ LBD; [3]) [kcal/mol]
CC[C@H](C)[C@H](NC(=O)[C@H](CC(=O)O)NC(=O)[C@H](CCC(=O)O)NC(=O)[C@H](CC(C)C)NC(=O)CNC(=O)[C@H](CC(C)C)NC(=O)[C@H](CC(N)=O)NC(=O)[C@H](CO)NC(=O)[C@H](C)NC(=O)[C@@H]1CCCN1C(=O)[C@H](CC(=O)O)NC(C)=O)C(=O)N[C@H](C(=O)N[C@@H](CCCNC(=N)N)C(=O)N[C@@H](CCCCN)C(=O)N[C@@H](C)C(=O)N[C@@H](CC(C)C)C(=O)N[C@@H](CCSC)C(=O)NCC(=O)N[C@@H](CO)C(=O)N[C@@H](Cc1ccccc1)C(=O)N[C@@H](CC(=O)O)C(=O)N[C@@H](CC(=O)O)C(=O)N[C@@H](CCCCN)C(N)=O)[C@@H](C)CC [NCoR ID2 peptide] | 3.0 | 10.7 | entropically driven and endothermic | increased LBD affinity | fast | mixture of peak movements in slow and intermediate exchange | AF-2 surface residues including K421 showed the largest CSP changes and line broadening | –
Ac-RTHRLITLADHICQIITQDFARN-NH2 [NCoR ID1 peptide] | 1.7 | 9.3 | entropically driven and endothermic | decreased LBD affinity | slow | mixture of peak movements in slow and intermediate exchange | AF-2 surface residues including K421 showed the largest CSP changes and line broadening | -7.7
